We go through one substance from patent publication US12599673B2, “Techniques for enhancing the selectivity and efficacy of antimicrobial and anticancer polymer agents” (International Business Machines Corporation, priority 2018, dated 2026).

A short description of data set [1]: In vivo toxicity in mice (LD50). On the procedure: FIGS. 21A and 21B provides tables illustrating the in vivo toxicity and antimicrobial efficacy of coacervate complexes in accordance with various embodiments described herein. […] The data presented in both tables 2101 and 2102 reflect testing using a mouse model.
With reference to FIG. 21 and Table 2101 the in vivo toxicity of different antimicrobials was measured as a function of the lethal dose 50 (LD50) values (which is the amount of antimicrobial that kills 50% of the tested population). […] In fact, the LD50 level of Complex E is so high that is cannot be measured. […] This in-vivo toxicity data is further commensurate with the in vitro toxicity data and in vitro hemolysis data discussed above.

Data set [2] deals with THP-1 cells (a human monocytic cell line). Description: Biocompatibility/toxicity with THP-1 cells (cell viability). The class given is cell-based. On the procedure:
FIG. 17 presents a Graph 1700 illustrating the biocompatibility/toxicity of various therapeutic polymers and coacervate complexes with mammalian cells in accordance with various embodiments described herein. […] In accordance with the data reflected in Graph 1700, different dosages (e.g., from 2 ppm to 1000 ppm in μg/mL) of the respective polymers and coacervate complexes were incubated with the THP-1 cells for 24 hours at 37° C. The polymers tested include Polymer A, Polymer B, Polymer C, Polymer D, and Polymer E. The coacervates tested include Complex B, Complex C, Complex D, and Complex E. The percent cell viability detected at concentrations less than 63 ppm were substantially the same as those shown for 63 ppm, and thus are not depicted to minimize the complexity of the visualization.

The test system of the next data set is P. aeruginosa. The data set can be described thus: Minimal inhibitory concentration toward P. aeruginosa. Format: cell-based, Pseudomonas aeruginosa. On the procedure: FIG. 15A presents a Graph 1500 illustrating the antimicrobial selectivity and efficacy of example therapeutic polymers and coacervate complexes against P. aeruginosa in accordance with various embodiments described herein. […] The tested efficacy is based on their respective minimal inhibitory concentrations (MICs) toward P. aeruginosa. […] The commercial standard antibiotic Polymyxin B sulfate (PolyB) and Complex X were also tested for selectivity and efficacy/toxicity for comparison. Complex X is used herein to refer to a coacervate complex formed with Polymer A in combination with PolyB (as opposed to Polymer A and the disclosed therapeutic polyguanidinium based Polymers). FIG. 15B provides a corresponding Table 1501 for Graph 1500. In addition to the MIC and HC50 values reflected in Graph 1500, Table 1501 also identifies the […] (SI) of the respective polymers and corresponding coacervate complexes. Repetitive description of like elements employed in respective embodiments is omitted for sake of brevity.

Consider Polymyxin B sulfate [PolyB], for which the LD50 (usually the dose expected to kill half of the subjects tested) in data set [1] is listed as 5.4 mg/kg. Also, in data set [2] (1000 ppm, 24 hours at 37° C), the “percent cell viability THP-1” value is given as “below 20%”. The “cell viability THP-1” value in data set [2] (about 250 ppm) was 50%; in data set [2] (about 500 ppm), ~30%. The “MIC toward P. aeruginosa” value in the data set on P. aeruginosa worked out at 0.5 µg/mL.
